The values below come from PubChem BioAssay (NCI).

Each structure is given as a SMILES string. Where “and” joins values, the source holds several entries; their conditions need not be identical. Equal values may be shown once.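 Exposure lasted 48 hours, with cells grown in 96-well plates and compounds tested at five concentrations. Abbreviation: GI50, concentration required for 50% inhibition of growth. At the TGI there is no net growth.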

Among the test systems are CCRF-CEM leukemia; DMS 273 small cell lung; HOP-18 NSCLC; IGROV1 ovarian; OVCAR-5 ovarian; SK-OV-3 ovarian; SW-620 colon; MCF7 breast; MDA-MB-231 breast; T-47D breast.
Test in all cases: inhibition of tumour cell growth, NCI panel, 48 h

For `Nc1ccn(CC(CO)CC(c2ccccc2)P(=O)(O)O)c(=O)n1` (stereo not drawn), the TGI in the experiment with CCRF-CEM leukemia, with DMS 273 small cell lung, with HOP-18 NSCLC, in the experiment on IGROV1 ovarian, in the experiment with OVCAR-5 ovarian and with SK-OV-3 ovarian was greater than 100 µM throughout. In the experiment with SW-620 colon, the TGI was greater than 100 µM.
Regarding `CCN1C(=O)C(N=[N+]=[N-])(c2ccccc2)C(=O)c2ccccc21` (stereo not drawn), the TGI with CCRF-CEM leukemia, with DMS 273 small cell lung, in the experiment on HOP-18 NSCLC, in the experiment with IGROV1 ovarian, with OVCAR-5 ovarian and with SK-OV-3 ovarian was greater than 100 µM in each case. The molecule further gave a TGI in the experiment with SW-620 colon greater than 100 µM.
`COC(=O)C(C(=O)C(=O)Nc1ccc([N+](=O)[O-])cc1)c1nc2cc(C)c(C)cc2[nH]c1=O` (stereo not drawn): the TGI with CCRF-CEM leukemia, with HOP-18 NSCLC, in the experiment with IGROV1 ovarian, with OVCAR-5 ovarian, in the experiment with SK-OV-3 ovarian and with SW-620 colon was greater than 100 µM each time.
Consider `CCOC(=O)/C(=C/c1ccc(Cl)cc1)N(CC)CC`, for which the TGI in the experiment on CCRF-CEM leukemia, with HOP-18 NSCLC, with IGROV1 ovarian, in the experiment with OVCAR-5 ovarian, in the experiment on SK-OV-3 ovarian and in the experiment on SW-620 colon was greater than 100 µM each time.
On to `CCOC(=O)NN(C(=O)OCC)C(C(=O)c1ccc(Cl)cc1)=C1NCCN1`, for which the TGI in the experiment with CCRF-CEM leukemia, in the experiment with DMS 273 small cell lung, in the experiment with HOP-18 NSCLC, in the experiment with IGROV1 ovarian, in the experiment with OVCAR-5 ovarian and in the experiment on SK-OV-3 ovarian was greater than 100 µM each time. In the experiment with SW-620 colon, this molecule showed a TGI greater than 100 µM.
As to `CC1=C2[C@@H](c3ccccc3)C3C=CC2(c2ccccc23)N(C(=O)Nc2cccc3ccccc23)C1=O` (stereo partly drawn), the TGI in the experiment on CCRF-CEM leukemia, in the experiment with DMS 273 small cell lung, with HOP-18 NSCLC, in the experiment on IGROV1 ovarian, in the experiment with OVCAR-5 ovarian and in the experiment on SK-OV-3 ovarian was greater than 100 µM each time. The molecule further returned a TGI in the experiment with SW-620 colon greater than 100 µM.
Take `CCOC1=C2C(C)(CCC3[C@@]4(C)C=CC(=O)C(C)(C)C4CC(O)[C@@]23C)C(c2ccoc2)C1=O` (stereo partly drawn): the TGI in the experiment on CCRF-CEM leukemia is 38.9 µM; in the experiment with DMS 273 small cell lung it was greater than 100 µM; in the experiment with HOP-18 NSCLC it was greater than 100 µM; with IGROV1 ovarian, greater than 100 µM; with OVCAR-5 ovarian it was 36 µM; in the experiment with SK-OV-3 ovarian it was 76.8 µM. Besides, the TGI in the experiment with SW-620 colon amounted to 46.2 µM.
As for `NC(=O)OCC(COc1ccc(Cl)cc1)OC(=O)c1cc([N+](=O)[O-])cc([N+](=O)[O-])c1` (stereo not drawn), the TGI in the experiment with CCRF-CEM leukemia, in the experiment with DMS 273 small cell lung, in the experiment on HOP-18 NSCLC, in the experiment on IGROV1 ovarian, with OVCAR-5 ovarian and with SK-OV-3 ovarian was greater than 100 µM each time. The molecule also gave a TGI with SW-620 colon of 27.6 µM.
Turning to `C/C=C1\C[C@@H]2C(OC)Nc3cc(O)c(OC)cc3C(=O)N2C1` (stereo partly drawn), the GI50 was 0.00229 µM in the experiment on CCRF-CEM leukemia; 0.0159 µM in the experiment with IGROV1 ovarian; 0.00692 µM in the experiment on MCF7 breast; 0.0131 µM in the experiment with MDA-MB-231 breast; 0.00775 µM with OVCAR-5 ovarian; 0.00827 µM with SK-OV-3 ovarian. In the experiment with SW-620 colon, the GI50 was 0.00703 µM. Further, the TGI in the experiment with CCRF-CEM leukemia was 0.103 µM and 0.349 µM; with DMS 273 small cell lung it was 0.0917 µM and < 0.0143 µM; with IGROV1 ovarian, 0.906 µM and 2.84 µM; in the experiment on MCF7 breast, 2.83 µM; in the experiment with MDA-MB-231 breast it was 0.0626 µM and 0.375 µM; in the experiment on OVCAR-5 ovarian it was 0.0632 µM and 0.306 µM. In addition, the TGI with SK-OV-3 ovarian was 2.37 µM; with SW-620 colon, 36.8 µM; in the experiment with T-47D breast it was 0.0783 µM and < 0.0265 µM.
As to `COC(=O)C1CCC[C@H]2C(CO)=C(C)C(=O)[C@@H]12` (stereo partly drawn), the TGI with CCRF-CEM leukemia, in the experiment on DMS 273 small cell lung, in the experiment with HOP-18 NSCLC, in the experiment with IGROV1 ovarian, in the experiment on OVCAR-5 ovarian and with SK-OV-3 ovarian was greater than 100 µM in each case. In the experiment with SW-620 colon, this molecule gave a TGI greater than 100 µM.
`N#Cc1nc(Nc2ccc(Cl)cc2)sc1N`: the TGI in the experiment on CCRF-CEM leukemia was greater than 100 µM; with DMS 273 small cell lung it was greater than 63.8 µM; with HOP-18 NSCLC it was greater than 100 µM; in the experiment with IGROV1 ovarian, greater than 88.9 µM; in the experiment on OVCAR-5 ovarian, greater than 46.4 µM; in the experiment with SK-OV-3 ovarian, greater than 100 µM. In the experiment on SW-620 colon, this molecule gave a TGI greater than 69.1 µM.
In the case of `N#CC(C#N)=Cc1ccc(Oc2ccccc2)cc1`, the TGI with CCRF-CEM leukemia is greater than 75.4 µM; with DMS 273 small cell lung, 37 µM; in the experiment with HOP-18 NSCLC, 89.8 µM; in the experiment with IGROV1 ovarian, greater than 69 µM; in the experiment with OVCAR-5 ovarian, greater than 100 µM; with SK-OV-3 ovarian, greater than 100 µM. The TGI in the experiment on SW-620 colon stood at 72.3 µM.
For the molecule `Cc1ccc(S(=O)(=O)NC(=O)C#CCOC2CCCCO2)cc1` (stereo not drawn), the TGI in the experiment with CCRF-CEM leukemia, in the experiment on DMS 273 small cell lung, in the experiment with HOP-18 NSCLC, in the experiment with OVCAR-5 ovarian and in the experiment on SW-620 colon was greater than 100 µM each time.
For the molecule `CC1OC(n2cc(I)c(=O)[nH]c2=O)C=CC1=O` (stereo not drawn), the TGI came out at 7.74 µM in the experiment with CCRF-CEM leukemia; 31.3 µM in the experiment with DMS 273 small cell lung; 30.3 µM in the experiment on HOP-18 NSCLC; 39.2 µM in the experiment on IGROV1 ovarian; 39.7 µM in the experiment with OVCAR-5 ovarian; 73.2 µM with SK-OV-3 ovarian. In the experiment on SW-620 colon, the TGI is 26.8 µM.
As to `C[C@]12CC/C(=N\OC(=O)Nc3ccccc3)C=C1CC[C@@H]1C2CC[C@@]2(C)C1CC[C@@H]2OC(=O)Nc1ccccc1` (stereo partly drawn), the TGI with CCRF-CEM leukemia, in the experiment with DMS 273 small cell lung, in the experiment on HOP-18 NSCLC, in the experiment on IGROV1 ovarian, with OVCAR-5 ovarian and in the experiment on SK-OV-3 ovarian was greater than 100 µM each time. Moreover, in the experiment on SW-620 colon, the TGI was greater than 100 µM.
Regarding `N#CC(C(=O)C(=O)Nc1ccc(Cl)c(Cl)c1)c1ccc(Cl)cc1` (stereo not drawn), the TGI with CCRF-CEM leukemia, in the experiment with DMS 273 small cell lung, with HOP-18 NSCLC, in the experiment with IGROV1 ovarian, in the experiment on OVCAR-5 ovarian and in the experiment with SK-OV-3 ovarian was greater than 100 µM throughout. In the experiment on SW-620 colon, this molecule gave a TGI of 30.8 µM.
As for `CCCCCCCCCCCCCC(=O)OC1C(CO)OC(=O)C1O` (stereo not drawn), the TGI with CCRF-CEM leukemia, in the experiment with DMS 273 small cell lung, in the experiment with HOP-18 NSCLC, in the experiment with IGROV1 ovarian, in the experiment on OVCAR-5 ovarian and with SK-OV-3 ovarian was greater than 100 µM each time. The TGI in the experiment with SW-620 colon was greater than 100 µM.
With `CSC1CC2C(CC1(C)SC)C2(C)C` (stereo not drawn), the TGI with CCRF-CEM leukemia is 84.2 µM; in the experiment on DMS 273 small cell lung, greater than 100 µM; in the experiment on IGROV1 ovarian it was greater than 100 µM; in the experiment on OVCAR-5 ovarian, greater than 100 µM; in the experiment on SK-OV-3 ovarian, greater than 100 µM; with SW-620 colon it was greater than 100 µM.
With `O=C(CC(=O)c1cccc([N+](=O)[O-])c1)C(=O)Nc1nc([N+](=O)[O-])cs1`, the TGI with CCRF-CEM leukemia, with DMS 273 small cell lung, with HOP-18 NSCLC, with IGROV1 ovarian, in the experiment on OVCAR-5 ovarian and with SK-OV-3 ovarian was greater than 100 µM throughout. In the experiment with SW-620 colon, this molecule showed a TGI greater than 100 µM.
For `COc1ccc2c([nH]c3cc(O)c(C)cc32)c1CC=C(C)C`, the GI50 was 5.4 µM in the experiment with CCRF-CEM leukemia, 8.43 µM in the experiment with DMS 273 small cell lung and 6.75 µM with SW-620 colon. For the same molecule, the TGI is 17.5 µM in the experiment on CCRF-CEM leukemia; 16.8 µM with DMS 273 small cell lung; greater than 25 µM in the experiment on IGROV1 ovarian; greater than 25 µM in the experiment with OVCAR-5 ovarian; greater than 25 µM in the experiment with SK-OV-3 ovarian; 20.7 µM in the experiment with SW-620 colon.
Turning to `COc1cc2c(cc1OC)C1(c3ccccc3)ON=C(c3ccccc3)N1CS2` (stereo not drawn), the TGI in the experiment with CCRF-CEM leukemia, in the experiment with DMS 273 small cell lung, in the experiment on HOP-18 NSCLC, with IGROV1 ovarian, with OVCAR-5 ovarian and with SK-OV-3 ovarian was greater than 100 µM each time. The same molecule had a TGI with SW-620 colon greater than 100 µM.
With `Cc1ccc(C(O)/C(=N/N)c2nc3ccc([N+](=O)[O-])cc3[nH]c2=O)cc1` (stereo not drawn), the TGI in the experiment on CCRF-CEM leukemia, in the experiment on DMS 273 small cell lung, in the experiment with IGROV1 ovarian, with OVCAR-5 ovarian, in the experiment with SK-OV-3 ovarian and with SW-620 colon was greater than 100 µM in each case.
In the case of `CC(=O)O[C@]12CCCCC1C1(O)C(O)CCCC[C@H]12` (stereo partly drawn), the TGI with CCRF-CEM leukemia, in the experiment on DMS 273 small cell lung, in the experiment with HOP-18 NSCLC, with SK-OV-3 ovarian and in the experiment on SW-620 colon was greater than 100 µM in each case.
As to `CCOc1ccc(N=Nc2c(-c3ccccc3)nn(C(=O)CC(=O)Nc3cccc(C)c3)c2-c2ccccc2)cc1`, the TGI with CCRF-CEM leukemia, in the experiment on DMS 273 small cell lung, with HOP-18 NSCLC, in the experiment on IGROV1 ovarian, in the experiment on OVCAR-5 ovarian and with SK-OV-3 ovarian was greater than 100 µM each time. In the experiment with SW-620 colon, this molecule had a TGI greater than 100 µM.
Regarding `CO[C@]12CCC(=O)N1C=Cc1c2[nH]c2ccccc12`, the TGI in the experiment with CCRF-CEM leukemia, in the experiment on HOP-18 NSCLC, in the experiment on IGROV1 ovarian, in the experiment on OVCAR-5 ovarian and in the experiment with SW-620 colon was greater than 100 µM in each case.
For `C/C=C/C=C\C(=O)C1c2cccc(O)c2C(=O)c2c(O)cc(C)cc21` (stereo not drawn), the TGI with CCRF-CEM leukemia was greater than 100 µM; in the experiment on DMS 273 small cell lung, 3.06 µM; in the experiment with HOP-18 NSCLC, 3.32 µM; in the experiment on IGROV1 ovarian, 2.91 µM; in the experiment with OVCAR-5 ovarian, 3.33 µM; with SK-OV-3 ovarian, 3.08 µM. Moreover, the TGI in the experiment on SW-620 colon is 2.55 µM.
